Laboratory results as given in patent US9469615B2, “Quinoxalines and AZA-quinoxalines as CRTH2 receptor modulators” (Merck Sharp & Dohme Corp., priority 2010, dated 2016).

Target: T1, hCRTH2 (Homo sapiens, UniProt Q9Y5Y4)
T1 construct: expressed in transfected cells; host or cells: HEK (human embryonic kidney) cells expressing hCRTH2; membrane preparation
T1 sequence (Q9Y5Y4 1-395): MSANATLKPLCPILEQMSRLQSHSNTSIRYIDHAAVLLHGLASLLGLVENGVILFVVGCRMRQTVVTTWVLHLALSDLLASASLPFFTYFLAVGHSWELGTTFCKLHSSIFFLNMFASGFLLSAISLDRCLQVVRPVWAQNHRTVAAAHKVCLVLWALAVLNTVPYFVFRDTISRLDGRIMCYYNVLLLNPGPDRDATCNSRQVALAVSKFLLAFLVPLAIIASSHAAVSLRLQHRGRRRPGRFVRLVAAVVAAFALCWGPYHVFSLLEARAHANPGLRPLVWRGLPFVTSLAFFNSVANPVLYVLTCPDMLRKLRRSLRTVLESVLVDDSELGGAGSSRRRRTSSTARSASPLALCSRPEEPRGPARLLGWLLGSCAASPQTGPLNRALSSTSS
Assay: Radioligand binding assay ([3H]PGD2 competition, HEK-hCRTH2 membranes)
Conditions: [3H]PGD2 binding, rated A-E (Table A)
Protocol: Biological Assays Radioligand Binding Assay.
Radioligand binding assays were performed at room temperature in 50 mM Tris-HCl pH 7.4, 1 mM EDTA containing 2 mM MnCl2 and 3.0 nM [^3H]PGD2 (New England Nuclear, Boston, Mass.) (171 Ci mmol^−1), in a final volume of 0.2 mL. Competing ligands were diluted in dimethylsulfoxide (Me2SO) that was kept constant at 1% (v/v) of the final incubation volume. The reaction was initiated by the addition of 8-20 μg of membrane protein prepared from a human embryonic kidney (HEK)-hCRTH2 cell line. Total and non-specific binding were determined in the absence and the presence of 10 μM PGD2, respectively. […] The reaction was routinely conducted for 60 min at room temperature and terminated by rapid filtration through prewetted (0.3% polyethyleneimine) 96-well printed Filtermate™ (Wallac) using a Tomtec® harvester (Hamden, Conn.). After washing with cold buffer, the filter was dried for 2 minutes in microwave, and Meltilex Scintillator sheet (Wallac) was melted on for 2 min. The radioactivity was measured with Betaplate model 1205 (Wallac).

| SMILES | Ki [nM] |
| --- | --- |
| C[C@@H](NC(=O)c1ccc2nc(-c3ccc(Cl)cc3)c(CC3CCC(C(=O)O)C3)nc2c1)c1ccc(F)cc1 (mixture of isomers) [compound 28, 3-((3-(4-chlorophenyl)-7-((R)-1-(4-fluorophenyl)ethylcarbamoyl)quinoxalin-2-yl)methyl)cyclopentanecarboxylic acid] | 2.1 to 20 |
| O=C(N[C@@H]1CCCc2ccccc21)c1ccc2nc(-c3ccccc3)c(CCCC(F)C(=O)O)nc2c1 (mixture of isomers) [compound 38, 2-fluoro-5-(3-phenyl-7-(((R)-1,2,3,4-tetrahydronaphthalen-1-yl)carbamoyl)quinoxalin-2-yl)pentanoic acid] | 20.1 to 200 |
| CC(NC(=O)c1ccc2nc(-c3ccc(C(F)(F)F)cc3)c(CCCCC(=O)O)nc2c1)c1ccc(-c2ccccc2)cc1 (racemic) [4E, 7-[[(1-[1,1′-biphenyl]-4-ylethyl)amino]carbonyl]-3-[4-(trifluoromethyl)-phenyl]-2-quinoxaline-pentanoic acid] | 0.1 to 2 |
| CC(NC(=O)c1ccc2nc(-c3ccc(C(F)(F)F)cc3)c(CCCCC(=O)O)nc2c1)c1ccc(-c2ccccc2)cc1 (single isomer, unassigned) [4F, 7-[[(1-[1,1′-biphenyl]-4-ylethyl)amino]carbonyl]-3-[4-(trifluoromethyl)-phenyl]-2-quinoxaline-pentanoic acid] | 2.1 to 20 |
| CC(NC(=O)c1ccc2nc(-c3ccc(C(F)(F)F)cc3)c(CCCCC(=O)O)nc2c1)c1ccc(-c2ccccc2)cc1 (single isomer, unassigned) [4G, 7-[[(1-[1,1′-biphenyl]-4-ylethyl)amino]carbonyl]-3-[4-(trifluoromethyl)-phenyl]-2-quinoxaline-pentanoic acid] | 2.1 to 20 |
| O=C(O)C1CC1CCc1nc2cc(C(=O)N3CCC(c4ccccc4)CC3)ccc2nc1-c1ccccc1 (single isomer, unassigned) [compound 20, 2-(2-(3-phenyl-7-(4-phenylpiperidine-1-carbonyl)quinoxaline-2-yl)ethyl)cyclopropanecarboxylic acid] | 20.1 to 200 |
| O=C(O)CCCCc1nc2cc(C(=O)N3CCC(c4ccccc4)C3)ccc2nc1-c1ccc(C(F)(F)F)cc1 (stereo in doubt) [compound 152, 7-[(3R)-phenyl-1-pyrrolidinyl)carbonyl]-3-[4-(trifluoromethyl)phenyl]-2-quinoxalinepentanoic acid] | 2.1 to 20 |
| O=C(O)CCCCc1nc2cc(C(=O)N3CCC(c4ccccc4)C3)ccc2nc1-c1ccc(C(F)(F)F)cc1 (stereo in doubt) [compound 153, 7-[(3(S)-phenyl-1-pyrrolidinyl]carbonyl]-3-[4-(trifluoromethyl)phenyl]-2-quinoxalinepentanoic acid] | 0.1 to 2 |
| CC(NC(=O)c1ccc2nc(-c3ccc(C(F)(F)F)cc3)c(CCCCC(=O)O)nc2c1)c1ccncc1 (stereo not drawn) [3AA, 7-[[[1-(4-pyridinyl)ethyl]-amino]carbonyl]-3-[4-(trifluoromethyl)-phenyl]-2-quinoxaline-pentanoic acid] | 2.1 to 20 |
| CC(NC(=O)c1ccc2nc(-c3ccc(C(F)(F)F)cc3)c(CCCCC(=O)O)nc2c1)c1ccccn1 (stereo not drawn) [3AB, 7-[[[1-(2-pyridinyl)ethyl]-amino]carbonyl]-3-[4-(trifluoromethyl)phenyl]-2-quinoxalinepentanoic acid] | 2.1 to 20 |
| O=C(O)CCCCc1nc2cc(C(=O)NCc3ccncc3)ccc2nc1-c1ccc(C(F)(F)F)cc1 [3AC, 7-[[(4-pyridinylmethyl)-amino]carbonyl]-3-[4-(trifluoromethyl)phenyl]-2-quinoxalinepentanoic acid] | 2.1 to 20 |
| O=C(O)CCCCc1nc2cc(C(=O)NCc3cccnc3)ccc2nc1-c1ccc(C(F)(F)F)cc1 [3AD] | 2.1 to 20 |
| O=C(O)CCCCc1nc2cc(C(=O)NCc3ccccn3)ccc2nc1-c1ccc(C(F)(F)F)cc1 [3AE, 7-[[(2-pyridinylmethyl)-amino]carbonyl]-3-[4-(trifluoromethyl)phenyl]-2-quinoxalinepentanoic acid] | 2.1 to 20 |
| O=C(O)CCCCc1nc2cc(C(=O)NCc3ccc(C(F)(F)F)nc3)ccc2nc1-c1ccc(C(F)(F)F)cc1 [3AF, 3-[4-(trifluoromethyl)phenyl]-7-[[[[6-(trifluoromethyl)-3-pyridinyl]methyl]amino]-carbonyl]-2-quinoxaline-pentanoic acid] | 2.1 to 20 |
| COC(=O)c1ccc2nc(-c3ccc(C(F)(F)F)cc3)c(CCCCC(=O)O)nc2c1 [3AG, 7-(methoxycarbonyl)-3-[4-(trifluoromethyl)phenyl]-2-quinoxalinepentanoic acid] | 2.1 to 20 |
| O=C(O)CCCCc1nc2cc(C(=O)Nc3ccc(F)cc3)ccc2nc1-c1cccc(F)c1 [3T, 3-(3-fluorophenyl)-7-[[(4-fluorophenyl)amino]carbonyl]-2-quinoxalinepentanoic acid] | 20.1 to 200 |
| O=C(O)CCCCc1nc2cc(C(=O)Nc3cccc(F)c3)ccc2nc1-c1cccc(F)c1 [3U, 3-(3-fluorophenyl)-7-[[(3-fluorophenyl)amino]carbonyl]-2-quinoxalinepentanoic acid] | 20.1 to 200 |
| O=C(O)CCCCc1nc2cc(C(=O)Nc3ccccc3F)ccc2nc1-c1cccc(F)c1 [3V, 3-(3-fluoropheny)-7-[[(2-fluorophenyl)amino]carbonyl]-2-quinoxalinepentanoic acid] | 201 to 700 |
| C[C@H](NC(=O)c1ccc2nc(-c3ccc(C(F)(F)F)cc3)c(CCCCC(=O)O)nc2c1)c1ccccc1 [3W, 7-[[(1-(S)-phenylethyl)amino]carbonyl]-3-[4-(trifluoromethyl)phenyl]-2-quinoxalinepentanoic acid] | 2.1 to 20 |
| C[C@@H](NC(=O)c1ccc2nc(-c3ccc(C(F)(F)F)cc3)c(CCCCC(=O)O)nc2c1)c1ccccc1 [3X, 7-[[(1-(R)-phenylethyl)amino]carbonyl]-3-[4-(trifluoromethyl)phenyl]-2-quinoxalinepentanoic acid] | 2.1 to 20 |
| O=C(O)CCCCc1nc2cc(C(=O)N3CCN(c4ccccc4)CC3)ccc2nc1-c1ccc(C(F)(F)F)cc1 [3Y, 7-[(4-phenyl-1-piperazinyl)carbonyl]-3-[4-(trifluoromethyl)phenyl]-2-quinoxalinepentanoic acid] | 0.1 to 2 |
| O=C(O)CCCCc1nc2cc(C(=O)C3CC3)ccc2nc1-c1ccc(C(F)(F)F)cc1 [3Z, 7-(cyclopropylcarbonyl)-3-[4-(trifluoromethyl)phenyl]-2-quinoxalinepentanoic acid] | 0.1 to 2 |
| C[C@@H](NC(=O)c1ccc2nc(-c3ccc(C(F)(F)F)cc3)c(CCCCC(=O)O)nc2c1)c1cccc(-c2ccccc2)c1 [4D, 7-[[[1-(R)-[1,1′-biphenyl]-3-ylethyl]amino]carbonyl]-3-[4-(trifluoromethyl)-phenyl]-2-quinoxaline-pentanoic acid] | 20.1 to 200 |

The remaining lines, values ahead:

| Ki [nM] | SMILES |
| --- | --- |
| 2.1 to 20 | O=C(O)C1CC1CCc1nc2cc(C(=O)N3CCC(c4ccccc4)CC3)ccc2nc1-c1ccccc1 (single isomer, unassigned) [20F, 2-(2-(3-phenyl-7-(4-phenylpiperidine-1-carbonyl)quinoxaline-2-yl)ethyl)cyclopropanecarboxylic acid] |
| 2.1 to 20 | O=C(O)C1CC1CCc1nc2cc(C(=O)N3CCC(c4ccccc4)CC3)ccc2nc1-c1ccccc1 (single isomer, unassigned) [20G, 2-(2-(3-phenyl-7-(4-phenylpiperidine-1-carbonyl)quinoxaline-2-yl)ethyl)cyclopropanecarboxylic acid] |
| 2.1 to 20 | O=C(O)C1CC1CCc1nc2cc(C(=O)N3CCC(c4ccccc4)CC3)ccc2nc1-c1ccccc1 (single isomer, unassigned) [20H, 2-(2-(3-phenyl-7-(4-phenylpiperidine-1-carbonyl)quinoxaline-2-yl)ethyl)cyclopropanecarboxylic acid] |
| 20.1 to 200 | O=C(N[C@@H]1CCCc2ccccc21)c1ccc2nc(-c3ccccc3)c(CCCC(F)C(=O)O)nc2c1 (single isomer, unassigned) [38A] |
| 20.1 to 200 | O=C(N[C@@H]1CCCc2ccccc21)c1ccc2nc(-c3ccccc3)c(CCCC(F)C(=O)O)nc2c1 (single isomer, unassigned) [38B] |
| 0.1 to 2 | CC(NC(=O)c1ccc2nc(-c3ccc(Cl)cc3)c(CCCCC(=O)O)nc2c1)c1ccccn1 (stereo in doubt) [16AA, 3-(4-chlorophenyl)-7-[[[1(S)-(2-pyridinyl)ethyl]amino]carbonyl]-2-quinoxalinepentanoic acid] |
| 0.1 to 2 | O=C(O)CCCCc1nc2cc(C(=O)c3ccccc3)ccc2nc1-c1ccc(F)cc1 [5G] |
| 20.1 to 200 | O=C(O)CCCCc1nc2cc(C(=O)Nc3cccc(F)c3)ccc2nc1-c1ccc(F)cc1 [5N, 3-(4-fluorophenyl)-7-[[(3-fluorophenyl)amino]carbonyl]-2-quinoxalinepentanoic acid] |
| 20.1 to 200 | O=C(O)CCCCc1nc2cc(C(=O)Nc3ccc(F)cc3)ccc2nc1-c1ccc(F)cc1 [5O, 3-(4-fluorophenyl)-7-[[(4-fluorophenyl)amino]carbonyl]-2-quinoxalinepentanoic acid] |

Same assay, conditions: [3H]PGD2 binding, values in text

| Ki [nM] | SMILES |
| --- | --- |
| 2.9 | O=C(O)CCCCc1nc2cc(C(=O)N3CCC(c4ccccc4)C3)ccc2nc1-c1ccc(C(F)(F)F)cc1 (stereo in doubt) [compound 152, 7-[(3R)-phenyl-1-pyrrolidinyl)carbonyl]-3-[4-(trifluoromethyl)phenyl]-2-quinoxalinepentanoic acid] |
